Data on 7 compounds can be found in paper PMC11874195, “Structural requirements of KAI2 ligands for activation of signal transduction” (Proceedings of the National Academy of Sciences of the …, 2025).

Assay [1] deals with T1, KAI2 (Arabidopsis thaliana, UniProt Q9SZU7).
T1 sequence (Q9SZU7 1-270): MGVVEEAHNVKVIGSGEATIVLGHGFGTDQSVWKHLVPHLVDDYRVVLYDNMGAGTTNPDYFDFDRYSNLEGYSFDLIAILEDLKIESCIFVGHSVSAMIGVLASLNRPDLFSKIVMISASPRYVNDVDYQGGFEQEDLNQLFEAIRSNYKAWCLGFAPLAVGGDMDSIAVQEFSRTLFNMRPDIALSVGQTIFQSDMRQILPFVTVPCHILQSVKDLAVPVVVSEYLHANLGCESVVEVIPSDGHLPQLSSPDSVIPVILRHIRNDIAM
The experiment in a line: biochemical. More on the design: Competitive inhibition of dYLG (0.5 uM) hydrolysis by purified recombinant KAI2, fluorescence read-out. The settings on record: 0.5 uM dYLG substrate, 10 min. The protocol:
The purified KAI2 (1 µg) was incubated with dYLG (0.5 µM) in the absence or presence of dMGer analogs for 10 min. Fluorescence intensity was measured using the Varioskan LUX plate reader (Thermo Fisher Scientific), with excitation and detection wavelengths of 480 and 520 nm, respectively. The IC50 values were calculated using the Enzyme Kinetics module of the SigmaPlot 14 program. Additional detailed methods are described in SI Appendix, Materials and Methods. To produce KAI2 protein, KAI2 cDNA was cloned into the pCold II vector, and KAI2 protein was expressed and purified as previously described(5). Briefly, the plasmid was transformed into BL21, the resulting transformant cells were precultured overnight in 2.5 mL LB medium and then cells were grown in 200 mL TB medium at 35 °C to an OD600 ~0.6. Protein expression was induced by IPTG addition, and inductions were conducted at 16 °C for 20 h. Cells were harvested and then suspended in the protein extraction buffer (50 mM Tris-HCl pH 8.0, BugBuster protein extraction reagent, and 20U of Benzonase, and the constituent proteins were purified by affinity column chromatography. The purified KAI2 (1 µg) was incubated with dYLG (0.5 µM) in the absence or presence of dMGer analogs for 10 min. We first conducted competitive inhibition assays to determine whether the carba-dMGers could bind to the ligand binding pocket of KAI2. In these assays, a profluorescent probe, desmethyl-Yoshimulactone green (dYLG), was used as a substrate, and the KAI2 binding activity was assessed by the inhibitor concentrations necessary to halve the response (IC50) for fluorophore formation. […] Differential scanning fluorimetry (DSF) assays were also performed to evaluate the effect of the dMGer analogs on KAI2 destabilization. In the DSF assay, ligand–protein interactions are monitored by changes in the melting temperature (Tm); effective agonists, such as GR24^ent^-5DS and dGR24^ent^-5DS, lower the Tm value, that is, thermally destabilize the KAI2 protein ([15], [35]).

Assay [2] concerns the target T1, KAI2. Nature of the assay: competitive dYLG hydrolysis assay with purified KAI2; also DSF and cleavage kinetics (K1/[…] =[…]). It counts as biochemical.
Assay [3] has as its target T1, KAI2. Nature of the assay: X-ray crystal structure at […] Å (soak); also dYLG competition IC50 and DSF. The format is biochemical.
In assay [4] the target is T1, KAI2. The experiment in a line: competitive dYLG hydrolysis assay with purified KAI2; also DSF (Tm […] to […] °C) and HPLC hydrolysis (K1/[…] =[…]). It counts as biochemical.

Each structure is given as a SMILES string.

With `O=C1CC(CCc2ccccc2Br)O1` (stereo not shown) [2Br-PEO, 4-(2-bromophenethyl)oxetan-2-one], the IC50 on KAI2 [1] worked out at 0.22 µM.
For the compound `O=C1C=C[C@H](Oc2ccc(-c3ccccc3)cc2[N+](=O)[O-])C1` [(+)-1′-carba-dMGer], the IC50 at KAI2 [2] is 78 µM.
Compound `O=C1C=C[C@H](Cc2ccc(-c3ccccc3)cc2[N+](=O)[O-])O1` [(+)-6′-carba-dMGer] came in with an IC50 on KAI2 [3] of 2.5 µM.
At KAI2 [4], `O=C1C=C[C@H](Oc2ccc(-c3ccccc3)cc2[N+](=O)[O-])O1` [(+)-dMGer] had an IC50 of 0.16 µM.
`O=C1C=C[C@@H](Oc2ccc(-c3ccccc3)cc2[N+](=O)[O-])C1` [(−)-1′-carba-dMGer]: at KAI2 [1], the IC50 stood at 152 µM.
Same read-out and setting: the value for `O=C1C=C[C@@H](Cc2ccc(-c3ccccc3)cc2[N+](=O)[O-])O1` [(−)-6′-carba-dMGer] was 11 µM.
As to `O=C1C=C[C@@H](Oc2ccc(-c3ccccc3)cc2[N+](=O)[O-])O1` [(−)-dMGer], on KAI2 [1], the IC50 turned out to be 3.6 µM.

As usually defined, the IC50 is the concentration at which inhibition is half-maximal.
